Activity calls are given as the source filed them. The calls are words filed in the database; no cut-off is given here.
Legend:
Splenic lymphocyte [1] = assay: Immunopotentiating activity in splenic lymphocytes (unknown origin) assessed as effect on proliferation by measuring cell viability at 0.1 to 1 ug/ml pretreated followed by incubation of lymphocytes with LPS for 48 hrs by MTT assay; type: functional, cell-based
Splenic lymphocyte [2] = assay: Immunopotentiating activity in splenic lymphocytes (unknown origin) assessed as effect on proliferation by measuring cell viability at 10 ug/ml pretreated followed by incubation of lymphocytes with LPS for 48 hrs by MTT assay; type: functional, cell-based
Splenic lymphocyte [3] = assay: Immunopotentiating activity in splenic lymphocytes (unknown origin) assessed as effect on proliferation by measuring cell viability at 10 ug/ml pretreated followed by incubation of lymphocytes with ConA for 48 hrs by MTT assay; type: functional, cell-based
Splenic lymphocyte [4] = assay: Immunopotentiating activity in splenic lymphocytes (unknown origin) assessed as effect on proliferation by measuring cell viability at 0.1 to 1 ug/ml pretreated followed by incubation of lymphocytes with ConA for 48 hrs by MTT assay; type: functional, cell-based
Mus musculus [5] = assay: Immunopotentiating activity in sheep RBC-immunized BALB/c mouse assessed as increase in isolated splenic […] proliferation administered orally for 14 days followed by incubation of isolated splenocytes with ConA for 72 hrs by MTT assay; type: functional
Mus musculus [6] = assay: Immunopotentiating activity in sheep RBC-immunized BALB/c mouse assessed as increase in isolated splenic T-cell proliferation administered orally for 14 days followed by incubation of isolated splenocytes with LPS for 72 hrs by MTT assay; type: functional
Mus musculus [7] = assay: Immunopotentiating activity in sheep RBC-immunized BALB/c mouse assessed as CD8-positive splenic T-cells at 0.01 mg/kg, po for 14 days by flow cytometry (reference value: 13.3 +/- 0.34%); type: functional
Mus musculus [8] = assay: Immunopotentiating activity in sheep RBC-immunized BALB/c mouse assessed as B-cell activation by measuring IgM antibody titer in serum at 0.001 mg/kg, po for 14 days measured on day 7 post dose by hemagglutinination technique; type: functional, organism-based
Mus musculus [9] = assay: Immunopotentiating activity in sheep RBC-immunized BALB/c mouse assessed as B-cell activation by measuring IgG antibody titer in serum at 0.1 mg/kg, po for 14 days by hemagglutinination technique; type: functional, organism-based
Mus musculus [10] = assay: Immunopotentiating activity in sheep RBC-immunized BALB/c mouse assessed as B-cell activation by measuring IgG antibody titer in serum at 0.001 mg/kg, po for 14 days by hemagglutinination technique; type: functional, organism-based
Splenic lymphocyte [11] = assay: Immunopotentiating activity in splenic lymphocytes (unknown origin) assessed as effect on proliferation by measuring cell viability pretreated followed by incubation of lymphocytes with LPS for 48 hrs by MTT assay; type: functional, cell-based
Mus musculus [12] = assay: Immunopotentiating activity in sheep RBC-immunized BALB/c mouse assessed as ratio of CD4-positive splenic T-cells to CD8-positive splenic T-cells at 0.1 mg/kg, po for 14 days by flow cytometry (RVB = 1.56 +/- 0.09); type: functional
Mus musculus [13] = assay: Immunopotentiating activity in sheep RBC-immunized BALB/c mouse assessed as CD8-positive splenic T-cells at 0.001 mg/kg, po for 14 days by flow cytometry (reference value: 13.3 +/- 0.34%); type: functional
Mus musculus [14] = assay: Immunopotentiating activity in sheep RBC-immunized BALB/c mouse assessed as CD8-positive T-cell content in spleen at 0.001 mg/kg, po for 14 days by flow cytometry (reference value: 1.47 +/- 0.04 10^7No_unit); type: functional
Mus musculus [15] = species on record: Mus musculus; assay: Cytotoxicity in BALB/c mouse splenocytes at 100 ug/ml measured after 72 hrs by MTT assay; type: toxicity; conditions: splenocyte
Mus musculus [16] = assay: Immunopotentiating activity in sheep RBC-immunized BALB/c mouse assessed as increase in delayed-type hypersensitivity response by measuring left hind foot pad thickness at 0.001 mg/kg, po qd administered 2 hrs post immunization for 7 days measured 24 to 48 hrs post SRBC challenge by spheromicrometer method; type: functional, organism-based
Mus musculus [17] = assay: Immunopotentiating activity in sheep RBC-immunized BALB/c mouse assessed as increase in isolated splenic B-cell proliferation administered orally for 14 days followed by incubation of isolated splenocytes with LPS for 72 hrs by MTT assay; type: functional
Splenic lymphocyte [18] = assay: Immunopotentiating activity in splenic lymphocytes (unknown origin) assessed as effect on proliferation by measuring cell viability pretreated followed by incubation of lymphocytes with ConA for 48 hrs by MTT assay; type: functional, cell-based
Mus musculus [19] = assay: Immunopotentiating activity in sheep RBC-immunized BALB/c mouse assessed as CD4-positive splenic T-cells at 0.001 mg/kg, po for 14 days by flow cytometry (reference value: 20.7 +/- 0.9%); type: functional
Mus musculus [20] = assay: Immunopotentiating activity in sheep RBC-immunized BALB/c mouse assessed as CD4-positive T-cell content in spleen at 0.1 mg/kg, po for 14 days by flow cytometry (reference value: 2.7 +/- 0.12 10^7No_unit); type: functional
Mus musculus [21] = assay: Immunopotentiating activity in sheep RBC-immunized BALB/c mouse assessed as CD4-positive splenic T-cells at 0.01 mg/kg, po for 14 days by flow cytometry (reference value: 20.7 +/- 0.9%); type: functional
Mus musculus [22] = assay: Immunopotentiating activity in sheep RBC-immunized BALB/c mouse assessed as CD4-positive splenic T-cells at 0.1 mg/kg, po for 14 days by flow cytometry (reference value: 20.7 +/- 0.9%); type: functional
Mus musculus [23] = assay: Immunopotentiating activity in sheep RBC-immunized BALB/c mouse assessed as B-cell activation by measuring IgM antibody titer in serum at 0.01 mg/kg, po for 14 days measured on day 7 post dose by hemagglutinination technique; type: functional, organism-based
Mus musculus [24] = assay: Immunopotentiating activity in sheep RBC-immunized BALB/c mouse assessed as CD8-positive splenic T-cells at 0.1 mg/kg, po for 14 days by flow cytometry (reference value: 13.3 +/- 0.34%); type: functional
Mus musculus [25] = assay: Immunopotentiating activity in sheep RBC-immunized BALB/c mouse assessed as CD4-positive T-cell content in spleen at 0.001 mg/kg, po for 14 days by flow cytometry (reference value: 2.7 +/- 0.12 10^7No_unit); type: functional
Mus musculus [26] = assay: Immunopotentiating activity in sheep RBC-immunized BALB/c mouse assessed as increase in macrophage production by measuring increase in NO production administered orally for 14 days followed by incubation with LPS for 48 hrs by Griess assay; type: functional
Mus musculus [27] = assay: Immunopotentiating activity in sheep RBC-immunized BALB/c mouse assessed as CD4-positive T-cell content in spleen at 0.01 mg/kg, po for 14 days by flow cytometry (reference value: 2.7 +/- 0.12 10^7No_unit); type: functional
Mus musculus [28] = assay: Immunopotentiating activity in sheep RBC-immunized BALB/c mouse assessed as B-cell activation by measuring IgM antibody titer in serum at 0.1 mg/kg, po for 14 days measured on day 7 post dose by hemagglutinination technique; type: functional, organism-based
Mus musculus [29] = assay: Immunopotentiating activity in sheep RBC-immunized BALB/c mouse assessed as CD8-positive T-cell content in spleen at 0.01 mg/kg, po for 14 days by flow cytometry (reference value: 1.47 +/- 0.04 10^7No_unit); type: functional
Mus musculus [30] = assay: Immunopotentiating activity in sheep RBC-immunized BALB/c mouse assessed as increase in IL4 production in splenocytes administered orally for 14 days followed by incubation with ConA for 48 hrs by ELISA; type: functional, cell-based
Mus musculus [31] = assay: Immunopotentiating activity in sheep RBC-immunized BALB/c mouse assessed as ratio of CD4-positive splenic T-cells to CD8-positive splenic T-cells at 0.001 mg/kg, po for 14 days by flow cytometry (RVB = 1.56 +/- 0.09); type: functional
Mus musculus [32] = assay: Immunopotentiating activity in sheep RBC-immunized BALB/c mouse assessed as increase in isolated splenic T-cell proliferation administered orally for 14 days followed by incubation of isolated splenocytes with ConA for 72 hrs by MTT assay; type: functional
Mus musculus [33] = assay: Immunopotentiating activity in sheep RBC-immunized BALB/c mouse assessed as increase in IL2 production in splenocytes administered orally for 14 days followed by incubation with ConA for 48 hrs by ELISA; type: functional, cell-based
Mus musculus [34] = assay: Immunopotentiating activity in sheep RBC-immunized BALB/c mouse assessed as CD8-positive T-cell content in spleen at 0.1 mg/kg, po for 14 days by flow cytometry (reference value: 1.47 +/- 0.04 10^7No_unit); type: functional
Mus musculus [35] = assay: Immunopotentiating activity in sheep RBC-immunized BALB/c mouse assessed as B-cell activation by measuring IgG antibody titer in serum at 0.01 mg/kg, po for 14 days by hemagglutinination technique; type: functional, organism-based
Mus musculus [36] = assay: Immunopotentiating activity in sheep RBC-immunized BALB/c mouse assessed as ratio of CD4-positive splenic T-cells to CD8-positive splenic T-cells at 0.01 mg/kg, po for 14 days by flow cytometry (RVB = 1.56 +/- 0.09); type: functional
Mus musculus [37] = assay: Immunopotentiating activity in sheep RBC-immunized BALB/c mouse assessed as increase in interferon-gamma production in splenocytes administered orally for 14 days followed by incubation with ConA for 48 hrs by ELISA; type: functional, cell-based

SMILES: O=c1ccc2ccc(OCC3CC(c4ccc(Cl)cc4)=NO3)cc2o1 (configuration not stated)
- Activity (Splenic lymphocyte [1]): Active
- Activity (Splenic lymphocyte [2]): Active
- Activity (Splenic lymphocyte [3]): Active
- Activity (Splenic lymphocyte [4]): Active

SMILES: COc1ccc(C2=NOC(COc3ccc4ccc(=O)oc4c3)C2)cc1 (configuration not stated)
- Activity (Mus musculus [5]): Dose-dependent effect
- Activity (Mus musculus [6]): Dose-dependent effect
- Activity (Mus musculus [7]): 19.8%
- Activity (Mus musculus [8]): Active
- Activity (Mus musculus [9]): Active
- Activity (Mus musculus [10]): Active
- Activity (Splenic lymphocyte [11]): Dose-dependent effect
- Ratio (Mus musculus [12]): 1.86
- Activity (Mus musculus [13]): 16.4%
- Activity (Mus musculus [14]): 1.26 ×10⁷ No_unit
- Activity (Mus musculus [15]): Non-Toxic
- Activity (Mus musculus [16]): Active
- Activity (Mus musculus [17]): Dose-dependent effect
- Activity (Splenic lymphocyte [18]): Dose-dependent effect
- Activity (Mus musculus [19]): 30.3%
- Activity (Mus musculus [20]): 1.85 ×10⁷ No_unit
- Activity (Mus musculus [21]): 34.2%
- Activity (Mus musculus [22]): 40.2%
- Activity (Mus musculus [23]): Active
- Activity (Mus musculus [24]): 21.6%
- Activity (Mus musculus [25]): 1.23 ×10⁷ No_unit
- Activity (Mus musculus [26]): Dose-dependent effect
- Activity (Mus musculus [27]): 1.61 ×10⁷ No_unit
- Activity (Mus musculus [28]): Active
- Activity (Mus musculus [29]): 1.35 ×10⁷ No_unit
- Activity (Mus musculus [30]): Dose-dependent effect
- Ratio (Mus musculus [31]): 1.32
- Activity (Mus musculus [32]): Dose-dependent effect
- Activity (Mus musculus [33]): Dose-dependent effect
- Activity (Mus musculus [34]): 1.48 ×10⁷ No_unit
- Activity (Mus musculus [35]): Active
- Ratio (Mus musculus [36]): 1.72
- Activity (Mus musculus [37]): Dose-dependent effect

SMILES: COc1cccc(C2=NOC(COc3ccc4ccc(=O)oc4c3)C2)c1 (configuration not stated)
- Activity (Splenic lymphocyte [11]): Dose-dependent effect
- Activity (Splenic lymphocyte [18]): Dose-dependent effect

SMILES: O=c1ccc2ccc(O)cc2o1
- Activity (Splenic lymphocyte [1]): Active
- Activity (Splenic lymphocyte [2]): Active
- Activity (Splenic lymphocyte [3]): Active
- Activity (Splenic lymphocyte [4]): Active

SMILES: O=c1ccc2ccc(OCC3CC(c4ccc([N+](=O)[O-])cc4)=NO3)cc2o1 (configuration not stated)
- Activity (Splenic lymphocyte [1]): Active
- Activity (Splenic lymphocyte [2]): Active
- Activity (Splenic lymphocyte [3]): Active
- Activity (Splenic lymphocyte [4]): Active
